Assay results: patent US20220169632A1, “METHODS AND MATERIALS FOR INCREASING OR MAINTAINING NICOTINAMIDE MONONUCLEOTIDE ADENYLYL TRANSFERASE-2 (NMNAT2) POLYPEPTIDE LEVELS” (University of Pittsburgh - Of the Commonwealth System of …, priority 2019, published 2022)

system: NMNAT2; test: NMNAT2-Hibit nano-luciferase activity in stably transfected U87MG cells, various concentrations, 24 hours; format: cell-based; conditions: U87MG cells stably transfected with NMNAT2-Hibit luc plasmid
Protocol: Selected compounds were tested in vitro. U87MG cells were stably transfected with NMNAT2-Hibit luc plasmid. Cells were treated with a test compound at various concentrations for 24 hours. Cells were then collected and assayed for nano-luciferase activity.

| SMILES | E: compound efficacy for NMNAT2 activation (concentration giving >25% increase in NMNAT2 luciferase activity) |
| --- | --- |
| Cc1ccc(Cn2c3c(c4ccccc42)C(C(=O)NCCc2ccccc2)CCC3)cc1 (centres unmarked) [BC20388] | + (“+” >25% increase in NMNAT2 luciferase activity at >25 μM.) |
| O=C1c2cccc3c2c(cn3Cc2cccc(F)c2)CCN1Cc1ccccc1F [BC20274] | + (“+” >25% increase in NMNAT2 luciferase activity at >25 μM.) |
| O=C1c2cccc3c2c(cn3Cc2cccc(F)c2)CCN1Cc1cccc(F)c1 [BC20275] | + (“+” >25% increase in NMNAT2 luciferase activity at >25 μM.) |
| O=C(NCc1ccccc1F)C1CCc2c(c3ccccc3n2Cc2cccc(F)c2)C1 (centres unmarked) [BC20256] | + (“+” >25% increase in NMNAT2 luciferase activity at >25 μM.) |
| O=C(NCc1cccc(F)c1)C1CCc2c(c3ccccc3n2Cc2cccc(F)c2)C1 (centres unmarked) [BC20222] | + (“+” >25% increase in NMNAT2 luciferase activity at >25 μM.) |
| O=C(NCc1ccncc1)C1CCCc2c1c1ccccc1n2Cc1cccc(F)c1 (centres unmarked) [BC20380] | + (“+” >25% increase in NMNAT2 luciferase activity at >25 μM.) |
| O=C(CCCc1cn(Cc2cccc(F)c2)c2ccccc12)NCc1ccncc1 [BC20148] | ++ (“++” >25% increase in NMNAT2 luciferase activity at >1 μM ≤25 μM.) |
| Cc1ccc(Cn2cc([C@H]3C[C@@H]3C(=O)NCCc3ccccc3)c3ccccc32)cc1 (racemic) [BC20300] | ++ (“++” >25% increase in NMNAT2 luciferase activity at >1 μM ≤25 μM.) |
| Cc1cccc(Cn2cc(CCCC(=O)NCc3ccco3)c3ccccc32)c1 [BC20163] | +++ (“+++” >25% increase in NMNAT2 luciferase activity at ≤1 μM.) |
| Cc1cccc(CNC(=O)C2CCc3c(c4ccccc4n3CC(=O)NCc3ccco3)C2)c1 (centres unmarked) [BC20239] | ++ (“++” >25% increase in NMNAT2 luciferase activity at >1 μM ≤25 μM.) |
| Cc1ccc(Cn2cc(C3CCN(CCc4cccc(C)c4)C(=O)C3)c3ccccc32)cc1 (centres unmarked) [BC20268] | + (“+” >25% increase in NMNAT2 luciferase activity at >25 μM.) |
| O=C(CCCc1cn(Cc2ccccc2F)c2ccccc12)N1CCN(C(=O)c2ccco2)CC1 [BC20129] | ++ (“++” >25% increase in NMNAT2 luciferase activity at >1 μM ≤25 μM.) |
| Cc1ccc(C)c(Cn2c3c(c4ccccc42)CN(C(=O)NCc2ccco2)CC3)c1 [BC20243] | +++ (“+++” >25% increase in NMNAT2 luciferase activity at ≤1 μM.) |
| Cc1cccc(Cn2cc(CCCC(=O)NC(C)Cc3ccco3)c3ccccc32)c1 (centres unmarked) [BC20171] | +++ (“+++” >25% increase in NMNAT2 luciferase activity at ≤1 μM.) |
| Cc1ccc(C)c(Cn2c3c(c4ccccc42)CC(C(=O)NCc2ccccc2F)CC3)c1 (centres unmarked) [BC20217] | + (“+” >25% increase in NMNAT2 luciferase activity at >25 μM.) |
| CC(Cc1ccco1)NC(=O)Cn1cc(C(=O)c2ccc(Cl)cc2)c2ccccc21 (centres unmarked) [BC20214] | + (“+” >25% increase in NMNAT2 luciferase activity at >25 μM.) |
| Cc1ccc(C)c(Cn2c3c(c4ccccc42)CC(C(=O)NCc2ccncc2)CC3)c1 (centres unmarked) [BC20190] | + (“+” >25% increase in NMNAT2 luciferase activity at >25 μM.) |
| Cc1ccc(C)c(Cn2c3c(c4ccccc42)CN(C(=O)NCCc2ccccc2)CC3)c1 [BC20254] | ++ (“++” >25% increase in NMNAT2 luciferase activity at >1 μM ≤25 μM.) |
| Cc1cccc(CNC(=O)CCCc2cn(Cc3ccccc3C)c3ccccc23)c1 [BC20154] | + (“+” >25% increase in NMNAT2 luciferase activity at >25 μM.) |
| CCCCN(CC)Cc1ccc(CNC(=O)c2ccc3c(c2)c(C)c(C)n3Cc2ccccc2C)o1 [BC20266] | ++ (“++” >25% increase in NMNAT2 luciferase activity at >1 μM ≤25 μM.) |
| Cc1cccc(NC(=O)c2ccc3c(c2)c(C)c(C)n3Cc2cccc(F)c2)c1C [BC20249] | +++ (“+++” >25% increase in NMNAT2 luciferase activity at ≤1 μM.) |
| Cc1ccccc1Cn1cc(CCCC(=O)NCc2ccccc2F)c2ccccc21 [BC20151] | ++ (“++” >25% increase in NMNAT2 luciferase activity at >1 μM ≤25 μM.) |

| SMILES | E: compound efficacy for NMNAT2 activation (concentration giving >25% increase in NMNAT2 luciferase activity) |
| --- | --- |
| CCCCN(CC)Cc1ccc(CNC(=O)c2ccc3c(c2)c(C)c(C)n3Cc2cccc(F)c2)o1 [BC20120] | +++ (“+++” >25% increase in NMNAT2 luciferase activity at ≤1 μM.) |
| COc1cccc(CNC(=O)N2CCc3c(c4ccccc4n3Cc3cccc(F)c3)C2)c1 [BC20310] | + (“+” >25% increase in NMNAT2 luciferase activity at >25 μM.) |
| O=C(NCc1ccco1)N1CCc2c(c3ccccc3n2Cc2ccncc2)C1 [BC20357] | ++ (“++” >25% increase in NMNAT2 luciferase activity at >1 μM ≤25 μM.) |
| O=C(NCc1cccc(F)c1)C1CCc2c(c3ccccc3n2Cc2ccncc2)C1 (centres unmarked) [BC20316] | + (“+” >25% increase in NMNAT2 luciferase activity at >25 μM.) |
| Cc1ccc(C)c(Cn2c(C(F)F)c(CCC(=O)NCc3cccc(F)c3)c3ccccc32)c1 [BC20394] | + (“+” >25% increase in NMNAT2 luciferase activity at >25 μM.) |
| Cc1ccc(CNC(=O)c2ccc3c(c2)c(C)c(C)n3Cc2cccc(F)c2)o1 [BC20109] | ++ (“++” >25% increase in NMNAT2 luciferase activity at >1 μM ≤25 μM.) |
| Cc1ccc(C)c(Cn2cc3c4c(cccc42)C(=O)N(CCOc2ccccc2)CC3)c1 [BC20343] | + (“+” >25% increase in NMNAT2 luciferase activity at >25 μM.) |
| O=C(NCCc1ccccc1)N1CCc2c(c3ccccc3n2Cc2cccc(F)c2)C1 [BC20311] | + (“+” >25% increase in NMNAT2 luciferase activity at >25 μM.) |
| Cc1ccc(C)c(Cn2c(C(F)F)c(CCC(=O)N3CCN(C(=O)c4ccco4)CC3)c3ccccc32)c1 [BC20400] | ++ (“++” >25% increase in NMNAT2 luciferase activity at >1 μM ≤25 μM.) |
| Cc1ccccc1CNC(=O)Cn1c2c(c3ccccc31)CC(C(=O)NCc1ccco1)CC2 (centres unmarked) [BC20287] | ++ (“++” >25% increase in NMNAT2 luciferase activity at >1 μM ≤25 μM.) |
| Cc1c(C)n(Cc2ccccc2F)c2ccc(C(=O)NCc3ccco3)cc12 [BC20100] | ++ (“++” >25% increase in NMNAT2 luciferase activity at >1 μM ≤25 μM.) |
| CCCCN(CC)Cc1ccc(CNC(=O)C2CCCc3c2c2ccccc2n3Cc2ccc(C)cc2)o1 (centres unmarked) [BC20391] | ++ (“++” >25% increase in NMNAT2 luciferase activity at >1 μM ≤25 μM.) |
| COc1cccc(CNC(=O)C2CCc3c(c4ccccc4n3Cc3ccncc3)C2)c1 (centres unmarked) [BC20283] | + (“+” >25% increase in NMNAT2 luciferase activity at >25 μM.) |
| O=C(NCCc1ccccc1)C1CCc2c(c3ccccc3n2Cc2cccc(F)c2)C1 (centres unmarked) [BC20227] | ++ (“++” >25% increase in NMNAT2 luciferase activity at >1 μM ≤25 μM.) |
| Cc1ccc(Cn2cc([C@H]3C[C@@H]3C(=O)NCc3cccc(C)c3)c3ccccc32)cc1 (racemic) [BC20297] | + (“+” >25% increase in NMNAT2 luciferase activity at >25 μM.) |
| Cc1ccc(C)c(Cn2c3c(c4ccccc42)CC(C(=O)NCc2ccc(C)o2)CC3)c1 (centres unmarked) [BC20183] | + (“+” >25% increase in NMNAT2 luciferase activity at >25 μM.) |
| Cc1ccc(CNC(=O)c2ccc3c(c2)c(C)c(C)n3Cc2ccccc2C)o1 [BC20200] | ++ (“++” >25% increase in NMNAT2 luciferase activity at >1 μM ≤25 μM.) |
| Cc1ccccc1Cn1c(C)c(C)c2cc(C(=O)N3CCN(C(=O)c4ccco4)CC3)ccc21 [BC20206] | + (“+” >25% increase in NMNAT2 luciferase activity at >25 μM.) |
| Cc1cccc(CNC(=O)C2CCc3c(c4ccccc4n3Cc3ccncc3)C2)c1 (centres unmarked) [BC20281] | + (“+” >25% increase in NMNAT2 luciferase activity at >25 μM.) |
| Cc1ccc(C)c(Cn2c(C(F)F)c(CCC(=O)NCc3ccccc3C)c3ccccc32)c1 [BC20395] | ++ (“++” >25% increase in NMNAT2 luciferase activity at >1 μM ≤25 μM.) |
| Cc1ccccc1Cn1c(C)c(C)c2cc(C(=O)O)ccc21 [BC20306] | + (“+” >25% increase in NMNAT2 luciferase activity at >25 μM.) |
| Cc1c(C)n(Cc2ccccc2F)c2ccc(C(=O)N3CCN(C(=O)c4ccco4)CC3)cc12 [BC20107] | ++ (“++” >25% increase in NMNAT2 luciferase activity at >1 μM ≤25 μM.) |
